No end group written: not given here.
Test system: Wistar male rats
Assay: Effect of GPR7 ligand on feed uptake in rat by lateral ventricular injection
Type: in vivo
Conditions: 10 nmols/rat into the lateral ventricle; from 2 hours after the administration; compared to the control group (distilled water)
Procedure: The effect of GPR7 ligand (GPR7L) on feed uptake in rat by lateral ventricular injection was examined. Rat was caged at room temperature of 25° C. while lighting for 8 to 20 o'clock. Mature Wistar male rats (300-320 g body weight upon surgery) were anesthetized with an intraperitoneal injection of 50 mg/kg pentobarbital and placed in a rat brain stereotaxic instrument. The level of incisor bar was 3.3 mm below the interaural line. The skull was exposed, and using a dental drill a hole was made on the bone for implantation of guide cannula AG-8 (inner diameter of 0.4 mm, outer diameter of 0.5 mm, EICOM Corporation). In addition, an anchor screw was buried at 3 positions around the hole. A stainless-steel guide cannula, AG-8, was inserted in such a manner that the tip was situated at the upper part of the lateral ventricle. Stereotaxic coordinates were taken from the atlas according to the atlas of Paxinos & Watson (1986) from bregma AP: −0.8 mm, L:1.5 mm and H:−4.5 mm. The guide cannula was secured to the skull using a dental cement and an anchor screw. […]
After the guide cannula was implanted, rats were caged for about a week to recover from surgical operation. […] The infusion was continued from 19:00 to 20:00 o'clock, and the feed uptake thereafter was measured with passage of time, using a feed uptake measuring device Feed-Scale (Columbus, Inc.).

Q: With “WYKPTAGQGYYSVGRAAGLLSGFHRSPYA [Trp1-bovine GPR7L(29)]” as the sequence, how does the feed uptake read?
A: Its feed uptake is “significant increase in feed uptake”.
